# Laboratory results published in EP4285905A1, “CABERGOLINE OR A PHARMACEUTICALLY ACCEPTABLE SALT OR SOLVATE THEREOF, FOR USE IN PREVENTION OR DELAY OF POST-PREGNANCY BREAST CANCER IN A FEMALE MAMMAL” (Consejo Superior de Investigaciones Cientificas, priority 2022, dated 2023).
# Test system: Brca1/P53-deficient mice
# Test: Caspase 3 immunohistochemistry as a marker of apoptosis in the mammary gland
# Assay type: in vivo
# From the text: Subsequently, the same groups of animals indicated were generated and samples were collected from the mammary glands at 1, 3, 7, 30 and 60 days post-gestation (in non-lactating multiparous) or post-weaning (in lactating multiparous, with and without treatment with cabergoline) (N = 5 mice per group at each time studied).
# The left inguinal breast of each mouse was embedded in paraffin for further study. Once removed from the animals, the breasts were fixed in 4% paraformaldehyde (Scharlau FO) for 24 hours and, subsequently, they were kept in 70% ethanol at a temperature of 4 °C, until they were processed in the Comparative Molecular Pathology Service of the Salamanca Cancer Research Center. Tissues were dehydrated by three 1-hour incubations in increasing concentrations of ethanol (60%, 80%, and 100%). Three other 1-hour incubations were carried out in xylol, to replace the dehydrating agent with a substance miscible in paraffin. Finally, three other incubations of 1 hour and 20 minutes were carried out with liquid paraffin, after which blocks were made with a mould suitable for the size of the tissue in a paraffin embedding station. When the paraffin blocks were completely cold, 2-µm-thick sections were made using a rotation microtome (Leica RM2255). […]
# To quantify cells positive for Ki-67 or caspase 3, the Leica Application Suite (LAS) V3.7 program was used. […]
smiles,measurement,setting,value
"C=CCN1C[C@H](C(=O)N(CCCN(C)C)C(=O)NCC)C[C@@H]2c3cccc4[nH]cc(c34)C[C@H]21 [cabergoline, 1-[(6-allylergolin-8ß-yl)-carbonyl]-1-[3-(dimethylamino)propyl]-3-ethylurea]",apoptosis (percentage of apoptotic cells positive against caspase 3),"3 days of post-lactational involution, vs untreated multiparous mice, P < 0.0001",significant increase in apoptosis
same,basal apoptosis of the epithelium (caspase 3),30 days post-weaning,greater basal apoptosis of the epithelium
